This is an account of results in PubChem BioAssay (NCI).

Structures are written as SMILES.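 Each compound was tested at five concentrations against cells in 96-well plates for 48 hours. GI50 = concentration required for 50% inhibition of growth. Definition used: TGI = concentration required for complete inhibition of growth.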 Bounds are passed on as bounds.

The test concerns MDA-MB-468 breast. The test is described as follows: growth of human tumour cells (NCI), 48 h.
In the case of `O=C(CCN1CCCC1)Nc1ccc2c(NCCCc3ccccc3)c3ccccc3nc2c1`, the GI50 was 0.477 µM and the TGI stood at 1.7 µM.

With `C#Cc1ccc(NC(=O)c2ccc(/C=C/C(=O)c3nccn3C)cc2)cc1`, the GI50 was 0.4 µM and the TGI worked out at 0.918 µM.

As to `C[Se]C(=O)CC1=C2C=C(F)C=CC2/C(=C\c2ccc(S(C)=O)cc2)C1C` (configuration not stated), the GI50 is 0.134 µM and the TGI worked out at 1.41 µM.

For the molecule `C=C1C(C)C2C(Cc3ccccc3)NC(=O)C23C(OC(C)=O)/C=C/C(C)(O)CC(C)C/C=C/C3C1O` (configuration not stated), the GI50 was 0.199 µM and the TGI was greater than 100 µM.

Turning to `CCNCCNc1cc(-c2ccc(F)cc2)c(C#N)c2nc3ccccc3n12`, the GI50 was 1.85 µM and the TGI amounted to 4.12 µM.

As to `CC/C=C\CCC/C=C1/C(=O)C=C[C@@H]1C/C=C\CCCC(=O)O`, the GI50 is 4.61 µM and the TGI was 18.7 µM.

`CC[C@H](C)[C@H](NC(=O)C12C3C4C1C1C2C3C41NC(C)=O)C(=O)N(C)[C@H](C[C@@H](OC(C)=O)c1nc(C(=O)N[C@@H](Cc2ccccc2)C[C@H](C)C(=O)OC)cs1)C(C)C` (some centres not stated): the GI50 is 0.081 µM and the TGI is greater than 3.98 µM.

For `Cn1c(=O)c2[nH]c(COc3ccc(C(C)(C)C)cc3)nc2n(C)c1=O`, the GI50 is 8.08 µM and the TGI amounted to 72.3 µM.

For the molecule `FC(F)(F)c1ccc(-c2cnc(Br)nc2NC2CCCCCC2)cc1`, the GI50 is 24.9 µM and the TGI is greater than 100 µM.

For `COc1cc(C2C(C#N)=C(N)OC3=C2C(=O)c2ccccc2C3=O)cc(OC)c1OC` (configuration not stated), the GI50 was 2.26 µM and the TGI came to 6.64 µM.

Regarding `O=c1[nH]c(-c2ccc(C(F)(F)F)cc2)nc2c1CSCC2`, the GI50 is 36.1 µM and the TGI is greater than 100 µM.

As for `COc1ccc2c(c1)OC13Oc4cc(OC)ccc4C=C1CCCC3=C2`, the GI50 was greater than 100 µM and the TGI was greater than 100 µM.

As to `CCS/C(Nc1ccccc1)=C(\C#N)C(=O)Nc1ccc(OC)cc1`, the GI50 is 1.39 µM and the TGI stood at 7.51 µM.

On to `Oc1ccccc1-n1c(-c2ccccc2)ccc1-c1ccccc1`, for which the GI50 was 3.3 µM and the TGI was 15.7 µM.

Consider `O=Nc1c(O)ccc2ccccc12`, for which the GI50 was 4.51 µM and the TGI worked out at 25.3 µM.

For the molecule `O=C1/C(=C/c2cccs2)CCC/C1=C\c1cccs1`, the GI50 was 0.577 µM and the TGI worked out at 14.9 µM.

On to `COc1ccc(/C=C(\C#N)c2cc3ccccc3n2C)cc1`, for which the GI50 was 0.273 µM and the TGI stood at 1.99 µM.

As to `CN(Cc1cnc2nc(N)nc(N)c2n1)c1ccc(C(=O)NC(CCC(=O)O)C(=O)O)cc1` (configuration not stated), the GI50 was 0.112 µM and the TGI is greater than 100 µM.

Consider `C[C@@H]1CC[C@@]2(OC1)O[C@H]1C[C@H]3[C@@H]4CC=C5C[C@@H](O[C@@H]6O[C@H](CO)[C@@H](O[C@@H]7O[C@@H](CO)[C@H](O)[C@H]7O)[C@H](O)[C@H]6O[C@@H]6O[C@@H](C)[C@H](O)[C@@H](O)[C@H]6O)CC[C@]5(C)[C@H]4CC[C@]3(C)[C@H]1[C@@H]2C`, for which the GI50 is 0.361 µM and the TGI was 1.45 µM.

As for `CC(C)(C)CC(C)(C)c1ccc(OCCOCCSC(=N)N)cc1`, the GI50 was 1.59 µM and the TGI stood at 3.32 µM.

With `Cn1ccnc1C(=O)/C=C/c1ccc(C(=O)Nc2nc3ccccc3[nH]2)cc1`, the GI50 is 1.29 µM and the TGI is greater than 25 µM.

As to `c1ccc(-c2nc(N3CCNCC3)c3nc(-c4ccccc4)oc3n2)cc1`, the GI50 was 1.93 µM and the TGI is 3.66 µM.

For `O=C(/C=C\c1ccnc2ccccc12)c1ccc([N+](=O)[O-])cc1`, the GI50 was 1.04 µM and the TGI turned out to be 9.09 µM.

With `CN(C)c1ccc(/C=C/c2ccnc3ccccc23)cc1`, the GI50 is 0.298 µM and the TGI turned out to be 16.9 µM.

For `C#Cc1nc(/C=C\CCCCCCC(=O)NO)cs1`, the GI50 is 1.19 µM and the TGI is 3.12 µM.

Turning to `COC(=O)CCC1=C(C)c2cc3[n-]c(cc4nc(cc5[n-]c(cc1n2)c(CCC(=O)OC)c5C)C=C4C)cc3C.[Cd+2]`, the GI50 is 3.29 µM and the TGI worked out at 12 µM.
